# Measured values from US12371428B2 (Exelixis, Inc., priority 2019, dated 2025).
# Tests used:
# [1] = target: Mer (phospho-Mer, MERTK-transfected 293A cells) (Homo sapiens (Human), UniProt Q12866); assay: Mer autophosphorylation ELISA in transient transfected 293A cells (Example H); format: cell-based; details: cellular activity; Mer autophosphorylation ELISA in transient transfected 293A cells
# Method in brief: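 293A cells transiently transfected with human MERTK were treated 1 h in serum-free medium with an 8-point compound dilution (0.3% DMSO final). Lysates were assayed by phospho-Mer sandwich ELISA against a phospho-Mer standard; IC50 came from a 4-parameter logistic fit, normalised to DMSO (100%) and reference-inhibitor (0%) controls.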
# [2] = target: Human MET (residues 956-1390) (Homo sapiens (Human), UniProt P08581); assay: Human Met kinase assay, HTRF KinEase (Example D-2); format: biochemical; details: protocol of Example D-2; read-out: c-Met IC50
# Method in brief: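 MET kinase domain (956-1390), 0.1 ng/well, in buffer with 5 mM MgCl2, 1 mM DTT and 1 mM MnCl2, phosphorylated a biotinylated peptide at ATP Km for 40 min at RT; 10 concentrations, 3% DMSO final. EDTA-stopped HTRF read after 60 min; IC50 from a 4-parameter logistic fit.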
# [3] = target: KDR (phospho-KDR, VEGF165-stimulated HUVEC cells) (Homo sapiens (Human), UniProt P35968); assay: KDR autophosphorylation ELISA in HUVEC cells (Example G); format: cell-based; details: cellular activity; KDR autophosphorylation ELISA in HUVEC cells
# Method in brief: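 HUVECs were serum-starved 24 h, given compound as an 8-point dilution series (0.3% DMSO final) for 1 h, then stimulated with 100 ng/mL VEGF165 for 5 min. Lysate phospho-KDR was quantified by sandwich ELISA against a phospho-KDR standard, and IC50s came from a 4-parameter logistic fit.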
# Chain of Mer (phospho-Mer, MERTK-transfected 293A cells) (Q12866 21-999): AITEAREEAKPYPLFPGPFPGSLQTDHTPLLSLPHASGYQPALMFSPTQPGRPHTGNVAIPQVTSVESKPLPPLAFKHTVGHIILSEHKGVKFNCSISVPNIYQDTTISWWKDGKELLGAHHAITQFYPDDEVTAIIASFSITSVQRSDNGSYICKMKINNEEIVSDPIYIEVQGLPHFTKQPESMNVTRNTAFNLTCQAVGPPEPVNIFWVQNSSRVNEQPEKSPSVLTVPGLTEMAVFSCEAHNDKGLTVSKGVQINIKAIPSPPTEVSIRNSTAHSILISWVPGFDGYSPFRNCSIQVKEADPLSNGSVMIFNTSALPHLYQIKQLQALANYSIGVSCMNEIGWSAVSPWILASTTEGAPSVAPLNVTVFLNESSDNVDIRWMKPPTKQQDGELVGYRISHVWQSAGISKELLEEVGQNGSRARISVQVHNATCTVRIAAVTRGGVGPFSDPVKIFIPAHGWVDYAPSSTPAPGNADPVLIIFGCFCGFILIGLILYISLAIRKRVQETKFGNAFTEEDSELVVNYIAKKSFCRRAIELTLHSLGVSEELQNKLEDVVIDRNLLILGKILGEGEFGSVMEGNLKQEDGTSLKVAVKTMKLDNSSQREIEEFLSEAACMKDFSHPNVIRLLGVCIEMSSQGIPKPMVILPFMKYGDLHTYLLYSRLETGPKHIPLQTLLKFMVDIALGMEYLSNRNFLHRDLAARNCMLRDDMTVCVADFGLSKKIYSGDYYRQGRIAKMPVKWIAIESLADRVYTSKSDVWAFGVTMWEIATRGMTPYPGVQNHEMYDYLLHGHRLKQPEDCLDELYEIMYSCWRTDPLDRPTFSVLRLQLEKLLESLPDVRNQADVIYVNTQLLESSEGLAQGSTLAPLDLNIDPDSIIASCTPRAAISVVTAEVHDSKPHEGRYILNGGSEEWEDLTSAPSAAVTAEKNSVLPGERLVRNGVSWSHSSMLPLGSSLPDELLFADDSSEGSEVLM
# Chain of KDR (phospho-KDR, VEGF165-stimulated HUVEC cells) (P35968 20-1356): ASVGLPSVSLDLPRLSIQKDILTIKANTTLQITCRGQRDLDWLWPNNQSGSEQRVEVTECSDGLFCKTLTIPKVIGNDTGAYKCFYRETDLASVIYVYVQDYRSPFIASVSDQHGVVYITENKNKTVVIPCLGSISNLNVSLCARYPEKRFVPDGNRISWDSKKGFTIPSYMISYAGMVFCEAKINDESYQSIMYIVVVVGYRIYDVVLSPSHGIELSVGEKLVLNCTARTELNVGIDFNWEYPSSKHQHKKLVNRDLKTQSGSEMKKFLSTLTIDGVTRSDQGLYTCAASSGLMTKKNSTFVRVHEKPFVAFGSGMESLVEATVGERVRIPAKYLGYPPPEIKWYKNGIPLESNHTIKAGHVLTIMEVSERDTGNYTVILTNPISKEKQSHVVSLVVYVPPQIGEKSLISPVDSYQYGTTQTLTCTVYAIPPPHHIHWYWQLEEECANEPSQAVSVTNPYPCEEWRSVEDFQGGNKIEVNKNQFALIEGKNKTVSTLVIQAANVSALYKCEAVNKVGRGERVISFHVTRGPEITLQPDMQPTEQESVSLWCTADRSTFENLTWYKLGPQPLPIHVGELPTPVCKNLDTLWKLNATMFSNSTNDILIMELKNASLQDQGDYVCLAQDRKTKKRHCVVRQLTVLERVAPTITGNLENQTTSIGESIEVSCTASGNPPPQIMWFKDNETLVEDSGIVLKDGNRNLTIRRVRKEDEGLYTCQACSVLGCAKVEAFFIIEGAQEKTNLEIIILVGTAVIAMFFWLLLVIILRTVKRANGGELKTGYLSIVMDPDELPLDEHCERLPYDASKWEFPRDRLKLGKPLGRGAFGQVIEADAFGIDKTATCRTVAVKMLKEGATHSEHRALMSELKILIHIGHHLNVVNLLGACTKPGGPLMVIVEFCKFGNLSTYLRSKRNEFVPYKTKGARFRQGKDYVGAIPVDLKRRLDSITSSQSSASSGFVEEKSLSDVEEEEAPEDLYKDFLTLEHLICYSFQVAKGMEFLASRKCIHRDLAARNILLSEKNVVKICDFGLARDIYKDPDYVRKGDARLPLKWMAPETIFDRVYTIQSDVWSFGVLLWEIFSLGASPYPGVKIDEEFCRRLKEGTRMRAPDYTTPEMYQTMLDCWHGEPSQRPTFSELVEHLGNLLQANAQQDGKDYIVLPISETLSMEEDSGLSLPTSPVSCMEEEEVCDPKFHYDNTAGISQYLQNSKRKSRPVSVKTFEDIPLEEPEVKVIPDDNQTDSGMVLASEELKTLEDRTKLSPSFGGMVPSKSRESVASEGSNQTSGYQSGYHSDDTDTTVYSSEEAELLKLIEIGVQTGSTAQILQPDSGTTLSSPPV
# Chain of Human MET (residues 956-1390) (P08581 956-1390): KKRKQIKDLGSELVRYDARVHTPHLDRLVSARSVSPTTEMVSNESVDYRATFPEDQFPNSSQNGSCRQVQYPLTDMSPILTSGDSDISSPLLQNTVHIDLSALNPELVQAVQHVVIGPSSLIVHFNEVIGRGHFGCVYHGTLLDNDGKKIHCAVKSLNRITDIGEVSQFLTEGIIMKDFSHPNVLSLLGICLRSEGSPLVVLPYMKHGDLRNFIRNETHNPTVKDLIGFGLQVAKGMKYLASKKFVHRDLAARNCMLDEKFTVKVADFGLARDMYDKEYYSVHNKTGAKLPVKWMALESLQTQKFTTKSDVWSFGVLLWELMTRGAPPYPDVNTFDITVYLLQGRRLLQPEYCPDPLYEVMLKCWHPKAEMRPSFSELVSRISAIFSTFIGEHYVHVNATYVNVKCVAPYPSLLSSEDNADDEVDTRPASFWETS
IC50 [1] [µM],IC50 [2] [µM],IC50 [3] [µM],Compound
< 0.1,0.1 to 0.3,< 0.1,"CCc1nc(C)c(-c2ccc(F)cc2C)c(O)c1C(=O)Nc1ccc(Oc2ccnc3ccc(OC)nc23)cc1 [Compound 526, 2-ethyl-5-(4-fluoro-2-methylphenyl)-4-hydroxy-N-[4-[(6-methoxy-1,5-naphthyridin-4-yl)oxy]phenyl]-6-methylpyridine-3-carboxamide]"
< 0.1,0.1 to 0.3,0.1 to 0.3,"CCn1cc(C(=O)Nc2ccc(Oc3ccnc4cc(OC)c(OC)nc34)c(F)c2)c(=O)c(-c2ccc(F)cc2)c1CF [Compound 562, N-[4-[(6,7-Dimethoxy-1,5-naphthyridin-4-yl)oxy]-3-fluorophenyl]-1-ethyl-6-(fluoromethyl)-5-(4-fluorophenyl)-4-oxopyridine-3-carboxamide]"
> 0.3,0.1 to 0.3,> 0.3,"COc1cnc2c(Oc3ccc(NC(=O)c4cc(C)nn(-c5ccc(F)cc5)c4=O)cc3)ccnc2c1 [Compound 522, 2-(4-fluorophenyl)-N-[4-[(7-methoxy-1,5-naphthyridin-4-yl)oxy]phenyl]-6-methyl-3-oxopyridazine-4-carboxamide]"
< 0.1,< 0.1,< 0.1,"Cc1nc(C)c(-c2ccc(F)cc2)c(O)c1C(=O)Nc1ccc(Oc2ccnc3cc(O)cnc23)c(F)c1 [Compound 554, N-[3-Fluoro-4-[(7-hydroxy-1,5-naphthyridin-4-yl)oxy]phenyl]-5-(4-fluorophenyl)-4-hydroxy-2,6-dimethylpyridine-3-carboxamide]"

# Further lines, the molecule ahead of its results:
Compound,IC50 [1] [µM],IC50 [2] [µM],IC50 [3] [µM]
"COc1cnc2c(Oc3ccc(NC(=O)c4nnc(C)c(-c5ccc(F)cc5)c4OC)cc3)ccnc2c1 [Compound 515, 5-(4-fluorophenyl)-4-methoxy-N-[4-[(7-methoxy-1,5-naphthyridin-4-yl)oxy]phenyl]-6-methylpyridazine-3-carboxamide]",< 0.1,< 0.1,< 0.1
"COc1nc2c(Oc3ccc(NC(=O)c4c(C)nc(C)c(-c5ccc(F)cc5)c4O)cc3F)ccnc2cc1C [Compound 459, N-[3-fluoro-4-[(6-methoxy-7-methyl-1,5-naphthyridin-4-yl)oxy]phenyl]-5-(4-fluorophenyl)-4-hydroxy-2,6-dimethylpyridine-3-carboxamide]",< 0.1,0.1 to 0.3,< 0.1
"Cc1cc(F)ccc1-c1c(C)nc(C)c(C(=O)Nc2ccc(Oc3ccnc4cccnc34)c(F)c2)c1O [Compound 505, 5-(4-fluoro-2-methylphenyl)-N-[3-fluoro-4-(1,5-naphthyridin-4-yloxy)phenyl]-4-hydroxy-2,6-dimethylpyridine-3-carboxamide]",0.1 to 0.3,< 0.1,< 0.1
"COCc1nc(C)c(-c2ccc(F)cc2C)c(O)c1C(=O)Nc1ccc(Oc2ccnc3ccc(OC)nc23)cc1 [Compound 516, 5-(4-fluoro-2-methylphenyl)-4-hydroxy-2-(methoxymethyl)-N-[4-[(6-methoxy-1,5-naphthyridin-4-yl)oxy]phenyl]-6-methylpyridine-3-carboxamide]",< 0.1,< 0.1,0.1 to 0.3
"COc1cc2nccc(Oc3ccc(NC(=O)c4cc(C)nn(-c5ccc(F)cc5)c4=O)cc3)c2nc1OC [Compound 520, N-[4-[(6,7-dimethoxy-1,5-naphthyridin-4-yl)oxy]phenyl]-2-(4-fluorophenyl)-6-methyl-3-oxopyridazine-4-carboxamide]",< 0.1,< 0.1,< 0.1
"CCc1nc(C)c(-c2ccc(F)cc2)c(O)c1C(=O)Nc1ccc(Oc2ccnc3ccc(OC)nc23)cc1 [Compound 509, 2-ethyl-5-(4-fluorophenyl)-4-hydroxy-N-[4-[(6-methoxy-1,5-naphthyridin-4-yl)oxy]phenyl]-6-methylpyridine-3-carboxamide]",< 0.1,< 0.1,< 0.1
